Reference: patent US4943570A, “Benzimidazolesulfonamides and imidazopyridinesulfonamides, and their application as drugs” (Laboratorios Del Dr. Esteve, S.A., priority 1986, dated 1990)

Test system: gastric acid secretion
Test: Inhibition of gastric acid secretion in Shay rats (Shay's method, pylorus ligation)
Type: in vivo, Male Wistar rats
Conditions: Rattus norvegicus, administered intraduodenally; for ED50: 2 h; for inhibition in vivo at 40 mg/kg: intraduodenal, 2 h after pylorus ligation, read-out: Percentage inhibition of gastric acid secretion
Description: Shay's method [H. Shay; S. A. Komarov; S. S. Fels; D. Merange: M. Grvenstein; H. Siplet: Gastroenterology, 5, 43 (1945)--F. E. Visscber; P. H. Seay: A. P. Taxelaar; W. Veldkamp; M. J. Vander Brook: J. Pharmac. Exp. Ther., 110, 188 (1954)--"Animal Experiments in Pharmacological Analysis", F. R. Domer: C. C. Thomas, published by Springfield, Ill., U.S.A., 1970, p. 140].
Male Wistar rats weighing 200 to 250 grams are used in this test; they are fasted from the day preceding the day of the test, with free access to water. Groups containing a minimum of 4 animals each are used.
The rats are anesthetized with ethyl ether, a laparotomy is performed on them and their pylorus is ligated; the abdominal incision is then sewn up. The administration of the products, with the vehicle for the control group, is effected intraduodenally (i.d.) before the abdominal incision is sewn up. The dose administered in the first test is 40 mg/kg and the 50% effective dose (ED50), administered intraduodenally, is also determined in a second test. The vehicle used is gum arabic at a concentration of 5% w/v in double-distilled water.
Two hours after ligation of the pylorus, the rats are sacrificed by prolonged anesthesia with ethyl ether and the volume of gastric juice is measured; the total acidity is determined by means of a pH meter equipped with an automatic burette. For each product and each dose tested, the percentage inhibition of gastric acid secretion is determined relative to the control group.

| SMILES | ED50 | inhibition in vivo at 40 mg/kg |
| --- | --- | --- |
| CCN1CCn2c(nc3cc(C(=O)c4ccccc4)ccc32)S1(=O)=O [Example 115, 8-Benzoyl-3,4-dihydro-2H-2-ethyl-[1,2,5]-thiadiazino-[5,6-a]benzimidazole 1,1-dioxide] | 38.9 mg/kg | 51.1% |
| O=[N+]([O-])c1ccc2c(c1)nc1n2CCN(C23CC4CC(CC(C4)C2)C3)S1(=O)=O [Example 147, 2H-2-(1-Adamantyl)-3,4-dihydro-8-nitro-[1,2,5]-thiadiazino[5,6-a]benzimidazole 1,1-dioxide] | 44 mg/kg | 46.5% |
| CCCCN1CCn2c(nc3ccccc32)S1(=O)=O [Example 100, 2H-2-Butyl-3,4-Dihydro-[1,2,5]-thiadiazino[5,6-a]-benzimidazole 1,1-dioxide] | 37.6 mg/kg | 51.8% |
| O=[N+]([O-])c1ccc2nc3n(c2c1)CCN(C12CC4CC(CC(C4)C1)C2)S3(=O)=O [Example 148, 2H-2-(1-Adamantyl)-3,4-dihydro-7-nitro-[1,2,5]-thiadiazino[5,6-a]benzimidazole 1,1-dioxide] | 46 mg/kg | 45.3% |
| CCN(CC)CCCC(C)N(CC)S(=O)(=O)c1nc2ccc(Cl)cc2n1CC (centres unmarked) [Example 74, 6-Chloro-1,N-diethyl-N-(4-diethylamino-1-methylbutyl)-1H-benzimidazole-2-sulfonamide] | 17.9 mg/kg | 76.4% |
| CCNS(=O)(=O)c1nc2cc(C(=O)c3ccccc3)ccc2[nH]1 [Example 1, 5-benzoyl-N-ethyl-1H-benzimidazole-2-sulfonamide] | 22.4 mg/kg | 78.7% |
| CCN(CC)CCCC(C)NS(=O)(=O)c1nc2ccc(Cl)cc2n1CC (centres unmarked) [Example 69, 6-Chloro-N-(4-diethylamino-1-methylbutyl)-1-ethyl-1H-benzimidazole-2-sulfonamide] | 39.2 mg/kg | 54.3% |
| O=S1(=O)c2nc3ccccc3n2CC2CCCCN21 (centres unmarked) [Example 180, 1,2,3,4,13,14-hexahydropyrido-[1',2':2,3]-[1,2,5]-thiadiazino[5,6-a]-benzimidazole 6,6-dioxide] | 43.7 mg/kg | 43.8% |
| O=S(=O)(c1nc2ccccc2[nH]1)N1CCCCC1CO (centres unmarked) [Example 28, 2-(Sulfonyl-2-hydroxymethyl-1-piperidinyl)-1H-benzimidazole] | 38.5 mg/kg | 51.4% |
| CCN1CCn2c(nc3ccc(NC(C)=O)cc32)S1(=O)=O [Example 150, 7-acetylamino-3,4-dihydro-2H-2-ethyl-[1,2,5]-thiadiazino[5,6-a]benzimidazole 1,1-dioxide] | 41.6 mg/kg | 53.4% |
| CCN(CC)S(=O)(=O)c1nc2ccccc2n1CC [Example 63, 1,N,N-Triethyl-1H-benzimidazole-2-sulfonamide] | 49.2 mg/kg | 52% |
| CCNS(=O)(=O)c1nc2ccccc2n1CC [Example 62, 1,N-diethyl-1H-benzimidazole-2-sulfonamide] | 31 mg/kg | 52.4% |
| CCCCNS(=O)(=O)c1nc2ccccc2[nH]1 [Example 14, N-Butyl-1H-benzimidazole-2-sulfonamide] | 30.6 mg/kg | 61.4% |
| CCN1C(C)Cn2c(nc3ccccc32)S1(=O)=O (centres unmarked) [Example 170, 3,4-Dihydro-2H-2-ethyl-3-methyl-[1,2,5]-thiadiazino[5,6-a]benzimidazole 1,1-dioxide] | 21.8 mg/kg | 73.2% |
| CCN1CCn2c(nc3ccc(N)cc32)S1(=O)=O [Example 149, 7-amino-3,4-dihydro-2H-2-ethyl-[1,2,5]-thiadiazino[5,6-a]benzimidazole 1,1 dioxide] | 32.6 mg/kg | 64% |
| CCN(CC)CCCC(C)N1CCn2c(nc3cc([N+](=O)[O-])ccc32)S1(=O)=O (centres unmarked) [Example 143, 2H-2-(4-Diethylamino-1-methylbutyl)-3,4-dihydro-8-nitro-[1,2,5]-thiadiazino[5,6-a]benzimidazole 1,1-dioxide] | 20.5 mg/kg | 99.3% |
| CCN1CCn2c(nc3ccc(C(=O)c4ccccc4)cc32)S1(=O)=O [Example 116, 7-Benzoyl-3,4-dihydro-2H-2-ethyl-[1,2,5]-thiadiazino-[5,6-a]benzimidazole 1,1-dioxide] | 39.4 mg/kg | 50.3% |

| SMILES | ED50 | inhibition in vivo at 40 mg/kg |
| --- | --- | --- |
| CCN(CC)CCCC(C)N(CC)S(=O)(=O)c1nc2cc(Cl)ccc2n1CC (centres unmarked) [Example 73, 5-Chloro-1,N-diethyl-N-(4-diethylamino-1-methylbutyl)-1H-benzimidazole-2-sulfonamide] | 18.5 mg/kg | 77.5% |
| O=[N+]([O-])c1ccc2c(c1)nc1n2CCNS1(=O)=O [Example 145, 3,4-Dihydro-2H-8-nitro-[1,2,5]-thiadiazino[5,6-a]-benzimidazole 1,1-dioxide] | 19.8 mg/kg | 68.7% |
| CCCCN1CCn2c(nc3cccnc32)S1(=O)=O [Example 173, 2H-2-Butyl-3,4-Dihydropyrido[3', 2':4,5]imidazo[1,2-e]-[1,2,5]-thiadiazine 1,1-dioxide] | 39.2 mg/kg | 57.1% |
| COc1ccc(CNS(=O)(=O)c2nc3ccccc3[nH]2)cc1 [Example 29, N-(4-Methoxybenzyl)-1H-benzimidazole-2-sulfonamide] | 37.9 mg/kg | 54.2% |
| CCN(CC)CCCC(C)N1CCn2c(nc3ccc(Cl)cc32)S1(=O)=O (centres unmarked) [Example 103, 7-chloro-3,4-dihydro-2H-2-(4-diethylamino-1-methylbutyl)-[1,2,5]-thiadiazino[5,6-a]benzimidazole 1,1-dioxide] | 15 mg/kg | 72.3% |
| O=[N+]([O-])c1ccc2c(c1)nc1n2CCN(CCCN2CCOCC2)S1(=O)=O [Example 141, 3,4-Dihydro-2H-2-[3-(4-morpholinopropyl)]-8-nitro-[1,2,5]-thiadiazino[5,6-a]benzimidazole 1,1-dioxide] | 16.3 mg/kg | 80.9% |
| CCNS(=O)(=O)c1nc2cc(C(F)(F)F)ccc2[nH]1 [Example 26, N-Ethyl-5-trifluoromethyl-1H-benzimidazole-2-sulfonamide] | 38.5 mg/kg | 53% |
| COc1ccc(CCNS(=O)(=O)c2nc3ccccc3[nH]2)cc1OC [Example 11, N-[2-(3,4-Dimethoxyphenylethyl)]-1H-benzimidazole-2-sulfonamide] | 42 mg/kg | 48.8% |
| CCN(CC)CCCC(C)N1CCn2c(nc3cc(Cl)ccc32)S1(=O)=O (centres unmarked) [Example 102, 8-Chloro-3,4-dihydro-2H-2-(4-diethylamino-1-methylbutyl)-[1,2,5]-thiadiazino[5,6-a]benzimidazole 1,1-dioxide] | 14.1 mg/kg | 71.4% |
| O=[N+]([O-])c1ccc2c(c1)nc1n2CC2CCCCN2S1(=O)=O (centres unmarked) [Example 181, 1,2,3,4,13,14-Hexahydro-9-nitropyrido[1',2':2,3]-[1,2,5-thiadiazino5,6-a]benzimidazole 6,6-dioxide] | 62 mg/kg | 43.4% |
| O=[N+]([O-])c1ccc2nc3n(c2c1)CC1CCCCN1S3(=O)=O (centres unmarked) [Example 182, 1,2,3,4,13,14-Hexahydro-10-nitropyrido[1',2':2,3]-[1,2,5]-thiadiazino[5,6-a]benzimidazole 6,6-dioxide] | 61.2 mg/kg | 42.1% |
| CCN1CCCn2c(nc3ccccc32)S1(=O)=O [Example 90, 3,4,5-Trihydro-2H-2-ethyl-[1,2,6]-thiadiazepino[6,7-a]-benzimidazole 1,1-dioxide] | 64 mg/kg | 51.4% |
| O=[N+]([O-])c1ccc2nc3n(c2c1)CCNS3(=O)=O [Example 146, 3,4-Dihydro-2H-7-nitro-[1,2,5]-thiadiazino[5,6-a]-benzimidazole 1,1-dioxide] | 20.3 mg/kg | 67.5% |
| CCN1C(c2ccccc2)=Cn2c(nc3ccccc32)S1(=O)=O [Example 177, 2H-2-ethyl-3-phenyl-[1,2,5]-thiadiazino[5,6-a]benzimidazole 1,1-dioxide] | 38.1 mg/kg | 53.7% |
| O=S(=O)(Nc1ccccn1)c1nc2ccccc2[nH]1 [Example 5, N-(2-Pyridyl)-1H-benzimidazole-2-sulfonamide] | 10.8 mg/kg | 96.4% |
| O=[N+]([O-])c1ccc2[nH]c(S(=O)(=O)NCCN3CCOCC3)nc2c1 [Example 36, N-[2-(4-Morpholinoethyl)]-5-nitro-1H-benzimidazole-2-sulfonamide] | 65.6 mg/kg | 40% |
| CCN(CC)CCCC(C)NS(=O)(=O)c1nc2cc(Cl)ccc2n1CC (centres unmarked) [Example 68, 5-Chloro-N-(4-diethylamino-1-methylbutyl)-1-ethyl-1H-benzimidazole-2-sulfonamide] | 39.7 mg/kg | 53.8% |
